Measured values taken from patent publication US8519154B2, “Method for treatment of bronchial asthma” (Council of Scientific & Industrial Research, priority 2011, dated 2013).
Read-outs that look alike come from different tables or passages of the source.

Test: Organ distribution of ICB/11/D-8
Type: in vivo
Details: Swiss, mouse, N=4 mice
Procedure: Organ Distribution of ICB/11/D-8 (ug/100 mg tissue, N=4 mice, 50

COc1cc(C=O)cc2c1[nH]c1ccccc12 [Compound I, 1-methoxy-3-formyl-9H carbazole]
concentration at 0.5 hr (brain, 0.5 hr, read-out: Organ distribution: Brain): 2300 ng/g | concentration at 2 hr (brain, 2 hr, read-out: Organ distribution: Brain): 26700 ng/g | concentration at 4 hr (brain, 4 hr, read-out: Organ distribution: Brain): 43300 ng/g | concentration at 12 hr (brain, 12 hr, read-out: Organ distribution: Brain): 3600 ng/g | concentration at 0.5 hr (heart, 50 not found, 0.5 hr, read-out: Organ distribution: Heart): 185000 ng/g | concentration at 2 hr (heart, 2 hr, read-out: Organ distribution: Heart): 263000 ng/g | concentration at 4 hr (heart, 4 hr, read-out: Organ distribution: Heart): 168000 ng/g | concentration at 12 hr (heart, 12 hr, read-out: Organ distribution: Heart): 32200 ng/g | concentration at 0.5 h (intestine, 0.5 hr): 105000 ng/g | concentration at 2 h (intestine, 2 hr): 168000 ng/g | concentration at 4 h (intestine, 4 hr): 124000 ng/g | concentration at 12 h (intestine, 12 hr): 25500 ng/g | concentration at 0.5 hr (kidneys, 0.5 hr, read-out: Organ distribution: Kidneys): 135000 ng/g | concentration at 2 hr (kidneys, 2 hr, read-out: Organ distribution: Kidneys): 171000 ng/g | concentration at 4 hr (kidneys, 4 hr, read-out: Organ distribution: Kidneys): 105000 ng/g | concentration at 12 hr (kidneys, 12 hr, read-out: Organ distribution: Kidneys): 15800 ng/g | concentration at 0.5 hr (liver, 0.5 hr, read-out: Organ distribution: Liver): 89500 ng/g | concentration at 2 hr (liver, 2 hr, read-out: Organ distribution: Liver): 168000 ng/g | concentration at 4 hr (liver, 4 hr, read-out: Organ distribution: Liver): 110000 ng/g | concentration at 12 hr (liver, 12 hr, read-out: Organ distribution: Liver): 12500 ng/g | concentration at 2 hr (lungs, 50 not found, 2 hr, read-out: Organ distribution: Lungs): 273000 ng/g | concentration at 4 hr (lungs, 50 not found, 4 hr, read-out: Organ distribution: Lungs): 80700 ng/g | concentration at 12 hr (lungs, 50 not found, 12 hr, read-out: Organ distribution: Lungs): 6700 ng/g | concentration at 0.5 hr (lungs, 0.5 hr, read-out: Organ distribution: Lungs): 122000 ng/g | concentration at 0.5 hr (spleen, 50 not found, 0.5 hr, read-out: Organ distribution: Spleen): 123000 ng/g | concentration at 2 hr (spleen, 50 not found, 2 hr, read-out: Organ distribution: Spleen): 140000 ng/g | concentration at 4 hr (spleen, 50 not found, 4 hr, read-out: Organ distribution: Spleen): 52500 ng/g | concentration at 12 hr (spleen, 50 not found, 12 hr, read-out: Organ distribution: Spleen): 9100 ng/g | concentration at 0.5 hr (stomach, 0.5 hr, read-out: Organ distribution: Stomach): 378000 ng/g | concentration at 2 hr (stomach, 2 hr, read-out: Organ distribution: Stomach): 689000 ng/g | concentration at 4 hr (stomach, 4 hr, read-out: Organ distribution: Stomach): 227000 ng/g | concentration at 12 hr (stomach, 12 hr, read-out: Organ distribution: Stomach): 43300 ng/g | concentration at 0.5 hr (urine, 0.5 hr, read-out: Organ distribution: Urine/ml): 2600 ng/mL | concentration at 2 hr (urine, 2 hr, read-out: Organ distribution: Urine/ml): 6560 ng/mL | concentration at 4 hr (urine, 4 hr, read-out: Organ distribution: Urine/ml): 4070 ng/mL | concentration at 0.5 hr (male, testes, 0.5 hr, read-out: Organ distribution: Testes): 168000 ng/g | concentration at 2 hr (male, testes, 2 hr, read-out: Organ distribution: Testes): 313000 ng/g | concentration at 4 hr (male, testes, 4 hr, read-out: Organ distribution: Testes): 58800 ng/g | concentration at 12 hr (male, testes, 12 hr, read-out: Organ distribution: Testes): 7800 ng/g
